Results on 5 compounds are retold here after US20100048457A1, “GLYCOPROTEIN FOR TREATING CHRONIC OBSTRUCTIVE PULMONARY DISEASES” (Guangzhou Konzern Pharmacetuical Co. Ltd, priority 2007, published 2010).

The subject of experiment [1] is ciliary movement in trachea mucous of rabbits. As to the kind of experiment: Ciliary movement in trachea mucous. Set-up: species or system rabbit; key to Ciliary movement: +++: All ciliary active in field of vision:; ++: ⅓~⅔ ciliary active in field of vision:; +: Less than ⅓ ciliary active in field of vision:; −−: All ciliary inactive in field of vision:
As to conditions: Ach, Dosage (g/L) 0.1. On the procedure:
The trachea mucous is exposed and washed by Ringer's solution (37° C.), then observe the sample by anatomical lens.
Add an ink into trachea mucous, the ink will move to one way (towards larynx), measure the velocity by micrometer and stopwatch, then calculate the moving velocity of mucus moving (second/2 mm).

The test system of experiment [2] is model animal with emphysema and pulmonary hypertension. In words: Experimental emphysema and pulmonary hypertension model. It counts as in vivo, golden hamster. How it is done:
Preparation of model animal with emphysema and pulmonary hypertension: choose 75 from 90 male golden hamster randomly, 100-150 g each, to make model mouse. The model-building is performed on elected 75 animals under intraperitoneal anesthesia. Then open the mouse and exposure its throat, insert a pipe and inject the medicine fluid (60 U/100 g weight) into the body through the pipe, then shake the animal to let the medicine equality. Animals are wake in several hours, and feed normally. Other 15 golden hamster are acted as normal control group (Group A), the same volume of saline is injected in each trachea of each animal.
After perfusion of the medicine by gavage, animals are killed to measure the following:
Right Systolic Pressure (RSP): animals are cut in the neck to expose the right jugular vein, then insert the pipe into the right jugular vein to right ventricle, the pipe also connects the physiological monitor (RM-6300, Japan) for blood pressure measuring. The right carotic artery is also exposed and cannulated for blood pressure measuring.
Right Ventricle Hypertrophy Index (RVHI): kill the animal by bleeding, open the chest and bring the heart out, then cut the right ventricle down. Wash the heart by saline, absorb the water by filter paper, and then weight the right ventricle, and weight the total weight of the left ventricle and atrioventricular septalium. RVHI=weight of right ventricle/(total weight of left ventricle and atrioventricular septalium)
Pneumonic bronchoalveolar lavage fluid analyse: isobarical lavage machine is infused with Locke's solution, 37° C., the level of bottom is 60-100 cm higher than the T pipe. Kill the animal and open its chest, separate and cut down the trachea, and then bring out the trachea and the lung together, place in the Locke's solution, 37° C. Extrude the air out of the lung, and ligate the trachea with sleeve and connect with the T pipe. Open the T pipe to let Locke's solution flow into the lung, adjust the velocity of flow to about 25 ml/min. Concentrate the lavage 400 g by the centrifugal for 10 minutes, remove the supernatant, then add physiological saline into the deposit to make the cell suspend. Count the number of cells of bronchoalveolar lavage fluid ([…]) by inverted microscope, four times for one sample. Count the number of cells (/ml/g) of bronchoalveolar lavage fluid (BALF). Dye the smear of the suspend with HE, then count the ratio of macrophage in cell types.
Statistic treatment: data is expressed by x±s, and analyzed by one-way ANOVA, and compare with each group by Newman-Keuls method, P<0.05 meants distinct difference.

The subject of experiment [3] is IL-2. In words: IL-2 in blood serum and BALF of asthmatic guinea pig (ELISA). It counts as in vivo. As to conditions: aminophylline group. How it is done:
(§1) 11) IL-2, IL-4 assaying box for ELISA: provided by Shenzhen Jing Mei Co., Ltd.
(§2) The isobarical lavage machine is infused with Locke's solution, 37° C., the level of bottom is 60-100 cm higher than the T pipe. Guinea pigs are narcosis under intraperitoneal anesthesia by 1.5 ml 1% pentobarbital. Take 2 ml blood from cervical artery for detection of inflammatory factors. Kill the animal and open its chest, separate and cut down the trachea, and then bring out the trachea and the lung together, place in the Locke's solution, 37° C. Extrude the air out of the lung, and ligate the trachea with sleeve and connect with the T pipe. Open the T pipe to let Locke's solution flow into the lung, adjust the velocity of flow to about 25 ml/min. Take 5 ml lavage fluid for detection of inflammatory factors. When the velocity of flow is stable, animals are given 0.5% ovalbumin to stimulate the twitching of bronchia. After 30 minutes, observe and record the flux per minute, 6-10 minutes.

Experiment [4] has as its system isolated bronchitis in contractive state. In words: Lung overfall of isolated bronchitis in contractive state, before and after dosing. Set-up: species or system guinea pig. As to conditions: aminophylline group. On the procedure:
as §2
After 6-minute stimulating, the lung overfall of isolated bronchitis becomes stable.

The subject of experiment [5] is IL-4. In words: IL-4 in blood serum and BALF of asthmatic guinea pig (ELISA). It counts as in vivo. To be noted: aminophylline group. How it is done:
as §1, §2
Background: In an ELISA, binding on a coated surface is turned into a signal by an enzyme label.

Experiment [6] relates to model mouse with chronic bronchitis. In words: Cough of chronic bronchitis (SO2 stimulation). As to conditions: Dextromethorphan 15 mg/kg (positive control, also dexamethason 1.2 mg/kg). It counts as in vivo. On the procedure: Preparation of model mouse with chronic bronchitis: choose 90 white mice, 20-25 g each, male or female Divide the mice randomly into six groups. In normal control group, no S02 stimulation is given, mice are feeding normally. In other groups, the following SO2 stimulation is given: place a utensil with 0.5 g anhydrous sodium sulfite in an 8 L bell cover, and place mice of each group into the bell cover, and add 50% vitriol 5 ml into the utensil, and take out the mice after 2 minutes; Once every day, 21 days.
During the dosing, observe the whole condition of animals in each group, and give the above SO2 stimulation to them in one hour after the last dosing. Record the delitescence of cough of each animal, and record the times of cough of each animal in 3 minutes.

In experiment [7] the test system is model mouse with acute bronchitis. In words: Cough of acute bronchitis (SO2 stimulation). It counts as in vivo. To be noted: Dextromethorphan 15 mg/kg oral. How it is done: Preparation of model mouse with acute bronchitis: choose white mice, 20-25 g each, male or female. Pre-select method: place a utensil with 0.5 g anhydrous sodium sulfite in an 1 L beaker, add 50% vitriol 5 ml into the utensil, and place mice of each group into the beaker after 15 seconds, and take out the mice after 30 seconds. The mouse which starts cough in 3 minutes is an eligible mouse. Record the delitescence of cough of each animal, and record the times of cough of each animal. […] During the dosing, observe the whole condition of animals in each group, and give the above SO2 stimulation to them for 30 seconds in one hour after the last dosing. Record the delitescence of cough of each mouse, and record the times of cough of each animal in 3 minutes.

Experiment [8] deals with Staphyloccocus aureus Rosenbach. As to the kind of experiment: Treatment of infection by Staphyloccocus aureus Rosenbach in vivo. The source says:
(§3) 2.10.1 select some bacterial related to acute pharyngitis, such as Staphyloccocus aureus Rosenbach, and α-hemolytic streptococcus, inject above bacterial into animals, such as mouse, by intraperitoneal dosing or subcutaneous injection, which will make certain animal death. Dosed before infecting the bacterial, and dosed after infecting the bacterial, the animals will be observed for eating, drinking, and movement.
(§4) Observe and record the eating, drinking, and movement in 4 days as the normal value. Besides of control group, animals in other groups are injected 0.5 ml Staphyloccocus aureus Rosenbach by intraperitoneal dosing or subcutaneous injection In the next day, animals are feed 5 days by gavage, twice every day. Observe the condition of eating, drinking, and movement, and mean growth rates, and then compare with control group.

Experiment [9] relates to α-hemolytic streptococcus. In words: Experimental treatment of infection by α-hemolytic streptococcus in vivo. As to conditions: Ofloxacin 500 mg/kg.
Source text: as §3, §4
The other methods are the same as the section 2.10.1.

Experiment [10] deals with model rat with chronic bronchitis. As to the kind of experiment: Treatment of pneumonia, histology of trachea and pneumonic tissue. It counts as in vivo, SD rat. As to conditions: positive group, dexamethason 1.2 mg/kg (FIG. 5), gavage 10 days.
Method: Preparation of model rat with chronic bronchitis: choose 60 SD rats, 250-300 g each, male or female. Divide the rats randomly into six groups, one is normal control group, the other five groups are model groups which are modeling according to section 2.4.
During the dosing, observe the whole condition of animals in each group, and carry out the following procedures in ten days after the last dosing: The rats are narcosis under intraperitoneal anesthesia by 0.4 ml/100 g 10% chloral hydrate, and put on the operating table, open the neck and chest, bring out the trachea and pneumonic tissue, and then observe the condition of the sample. The sample is fixed by 10% formalin solution, and embedded by paraffin, and cut into slices, and dyed by HE. The inflammatory pathological changes are observed by microscope, including the integrality of epidermis, thickness of glands, infiltration of inflammatory cells in tracheal mucous, follicular lymph, and thickness of tracheal wall.
The mark [11] stands for this setting: Ofloxacin 500 mg/kg, gavage twice every day.

As for `CC(=O)OCC[N+](C)(C)C.[Cl-]` [Ach, Acetylcholine chloride], in experiment [1], the Ciliary movement entry was “+++”. The Moving velocity in [1] (ink on trachea mucous) is given as 5.36 ± 0.64 second/2 mm.

For `Cn1c(=O)c2[nH]cnc2n(C)c1=O` [Aminophylline], the MS in [2] (aminophylline positive control group) is 96.7 ± 9.6%. This compound returned an RVHI in experiment [2] (aminophylline positive control group, gavage) of 28.62 ± 8.81%. In addition, the BALF in experiment [2] (cells in bronchoalveolar lavage fluid, aminophylline positive control group) is recorded as 364.8 ± 95.7 /mm^3. For the same compound, in experiment [2] (comparing with the model group, aminophylline group), the “pathological changes of emphysema” value is on record as “non-obviously improvement”. Further, in experiment [3], the “IL-2 in BALF” value turned out to be 0.13 ± 0.08 b pg/ml and the IL-2 in serum worked out at 1.45 ± 0.86 b pg/ml. Moreover, in experiment [3] (summary of table 9), the “amount of IL-2 in blood serum and BALF” value is “decreases obviously”. Further, the “lung overfall of isolated bronchitis in contractive state, After dosing” value in [4] stood at 17.13 ± 3.08. In addition, the “lung overfall of isolated bronchitis in contractive state, Before dosing” value in experiment [4] (baseline before dosing) is recorded as 9.45 ± 1.86. Further, the “lung overfall of isolated bronchitis in contractive state, After dosing” value in experiment [4] (listed as aminophylline) is on record as “increases obviously”. Also, in experiment [5], the “IL-4 in BALF” value worked out at 26.81 ± 7.76 b pg/ml and the IL-4 in serum stood at 1.78 ± 1.56 b pg/ml. Also, in [5] (summary of table 9), the “amount of IL-4 in blood serum and BALF” value is listed as “decreases obviously”.

Turning to `COc1ccc2c(c1)[C@]13CCCC[C@@H]1[C@H](C2)N(C)CC3` [Dextromethorphan], the Delitescence amounted to 17.70 ± 4.521 in [6] (delitescence of cough) and 30.40 ± 9.91 in experiment [7] (delitescence of cough). Moreover, the entries for the “Times of Cough” value in experiment [6] (in 3 minutes) and in experiment [7] (in 3 minutes) were 77.60 ± 9.88 and 35.20 ± 5.65, respectively.

Regarding `CC1COc2c(N3CCN(C)CC3)c(F)cc3c(=O)c(C(=O)O)cn1c23` (centres unmarked) [Ofloxacin], in experiment [8] (setting [11]), the “After infection, dringking, Day 1” value came out at 2.7 mL; the “After infection, dringking, Day 2” value is 3.2 mL; the “After infection, dringking, Day 3” value was determined as 3.0 mL; the “After infection, dringking, Day 4” value came to 3.5 mL. Besides, in experiment [8] (setting [11]), the “After infection, dringking, Day 5” value came to 4.3 mL; the “After infection, eating, Day 1” value was 1.9 g; the “After infection, eating, Day 2” value is given as 2.5 g; the “After infection, eating, Day 3” value was determined as 3.2 g. Besides, in experiment [8] (setting [11]), the “After infection, eating, Day 4” value was 3.6 g and the “After infection, eating, Day 5” value was 3.9 g. This compound had a Survive in [8] (of 15 animals, Ofloxacin group) of 15. Besides, in experiment [9], the “After infection, dringking, Day 1” value is 2.3 mL; the “After infection, dringking, Day 2” value is 3.6 mL; the “After infection, dringking, Day 3” value was found to be 3.8 mL; the “After infection, dringking, Day 4” value was 3.8 mL. Further, in experiment [9], the “After infection, dringking, Day 5” value is 4.2 mL; the “After infection, eating, Day 1” value is 2.1 g; the “After infection, eating, Day 2” value came out at 2.3 g; the “After infection, eating, Day 3” value amounted to 2.9 g. Besides, in [9], the “After infection, eating, Day 4” value was 3.2 g and the “After infection, eating, Day 5” value is recorded as 4.5 g.

As to `C[C@@H]1C[C@H]2[C@@H]3CCC4=CC(=O)C=C[C@]4(C)[C@@]3(F)[C@@H](O)C[C@]2(C)[C@@]1(O)C(=O)CO` [dexamethason], in experiment [10], the “inflammatory pathological changes of trachea and pneumonic tissue (microscope)” value is recorded as “obviously different from the model control group”.
